In patent US20080248008A1, “Inhibitors of Protein Kinase a Anchoring” (priority 2004, published 2008):

What was measured:
[1] = test system: human peripheral blood T cells; assay: Flow cytometry of cell death/apoptosis in activated T cells; type: cell-based
Procedure: Flow cytometry. Negatively selected CD3^+ T cells cultured in flat-bottom, 96-well plates (Costar; 0.2×10^6 cells/well) were activated with OKT-3 (4 ng/μl) for […] at 37° C., crosslinked with F(ab′)2 fragments (39 μg/ml) and thereafter incubated with arginine-coupled peptides at 0-50 μM. For analyzing the DNA content, the cells were incubated further for 36-40 hours and thereafter washed in PBS, fixed in […], permeabilized in FACS Permeabilizing Solution (BD BioSciences, San Jose, Calif.) for 10 min and washed in PBS containing 1% BSA and 100 μg/ml RNase prior to being stained with propidium iodide (PI, Cat. No. 51-66211E BD Biosciences Pharmingen, San Diego, Calif., USA) (25 μg/ml) for 15 min 37° C. The cells were washed twice in PBS and fixed in 1% paraformaldehyde before flow cytometry (FACSCalibur, BD Biosciences, San Jose, Calif.) and subsequent analysis using FlowJo software (Tree Star, San Carlos, Calif.). For analyzing apoptosis and necrosis, the cells were incubated further for 18 hours and thereafter washed in PBS, fixed in 1% paraformaldehyde and washed with annexin binding buffer (Cat. No. 51-66121E, BD Biosciences) prior to being stained with Annexin V (3 μl to 50 μl volume, Cat. No. 556419, BD Biosciences Pharmingen) and PI (3 μg/ml) for 20 min on ice. The cells were washed twice in PBS and fixed in 1% paraformaldehyde before being analyzed on a flow cytometer (FACSCalibur, BD Biosciences, San Jose, Calif.) and analyzed using FlowJo software (Tree Star, San Carlos, Calif.).
To test whether MEME3-Arg11 induces cell death or apoptosis in human peripheral blood T cells, activated T cells treated with increasing doses of MEME3-Arg11 were analysed by forward scatter/sideward scatter (FSC/SSC) in a fluorescence-activated cell sorter (FACS). […] Apoptosis was also assessed by Annexin V^FITC labeling under the same experimental conditions. […] The effect of the peptides on cellular DNA content was also measured by flow cytometry after permeabilization of the fixed cells and PI-staining.
Cell death was also analysed by monitoring PS externalization by Annexin V binding and destruction of the cellular membrane by PI staining using FACS.

PKA-RIα = target: T1, PKA-RIα (Mus musculus, UniProt Q9DBC7); assay: Immunofluorescence of PKA-RIα at mitochondria in Y1 adrenal cells; type: cell-based
T1 construct: host or cells: mouse Y-1 adrenocortical cells
Procedure: Mouse adrenocortical Y1 cells were obtained from ATCC (Cat. No. CCL-79) and maintained in DMEM/HAM'S F-12 (Cat. No. E15-813, PAA Laboratories GmbH, Pasching, Austria) supplemented with 100 μg/ml streptomycin, 100 U/ml penicillin and 10% (v/v) fetal calf serum in a humidified atmosphere of 5% CO2 and split by trypsination at less than 80% confluence.
Immunofluorescence analysis of cells was performed as previously described (Collas, P. et al., 1996, J. Cell Biol. 135, 1715-1725). RI was detected by using an anti-RI monoclonal antibody (Transduction Laboratories) as a primary antibody at a […] and Alexa-488 as a secondary antibody (1:600, Goat anti Mouse IgGs, Molecular Probes). Immunofluorescence was performed on Y1 cells attached to collagen/fibronectin coated coverslips. Mitochondria were stained using MitoTracker Red CMXRos (Molecular Probes) in fresh medium with incubation at 37° C. for 30 min prior to cell fixation. All cells were washed in PBS, fixed with 3% paraformaldehyde and permeabilised using 0.1% Triton X-100. Proteins were blocked in 2% BSA/PBST prior to antibody labeling. […] Alternatively, fluorescently labeled cells were examined using a Leica TCS SP1 confocal fluorescence microscope (Leica, Heidelberg, Germany) equipped with an Ar (488 nm) and two He/Ne (543 and 633 nm) laser lines. […]

RII = target: T2, RII (Mus musculus, UniProt P12367); assay: R-overlay (solid-phase binding) of 32P-labelled RII on membrane-synthesized peptides; parameters: species or system murine
T2 construct: His tag; made in house; host or cells: E. coli BL21 (B121 [sic])
T2 sequence (P12367 whole entry): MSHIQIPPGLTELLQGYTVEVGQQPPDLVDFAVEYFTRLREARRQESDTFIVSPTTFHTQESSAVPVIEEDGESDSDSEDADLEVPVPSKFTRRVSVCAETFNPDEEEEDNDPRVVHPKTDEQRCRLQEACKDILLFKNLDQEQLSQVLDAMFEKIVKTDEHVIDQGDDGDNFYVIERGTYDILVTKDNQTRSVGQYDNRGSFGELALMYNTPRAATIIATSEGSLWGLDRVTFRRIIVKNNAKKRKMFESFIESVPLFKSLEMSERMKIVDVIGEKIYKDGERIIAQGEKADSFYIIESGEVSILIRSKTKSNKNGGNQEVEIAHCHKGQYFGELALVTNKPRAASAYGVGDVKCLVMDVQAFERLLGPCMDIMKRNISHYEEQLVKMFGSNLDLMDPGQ
Procedure: Autospot Peptide Array. Peptide arrays were synthesized on cellulose paper by using an Autospot Robot ASP222 (ABiMED, Langenfeld, Germany) as described (Frank, R., 1992, Tetrahedron 48, 123-132) or Multipep automated peptide synthesizer (INTAVIS Bioanalytical Instruments AG, Koeln, Germany) as described (Frank, R., 1992, Tetrahedron 48, 123-132).
R-overlay. R-overlays were conducted as described, using ^32P-labeled recombinant murine RII (Hausken, Z. E., et al., 1998 in Protein Targeting Protocols, ed. Clegg, R. A. (Humana, Totowa, N.J.), Vol. 88, pp. 47-64) or recombinant bovine RI (A98S) or by cold RI-overlay where bound RIα was detected by Western blot. Cold RI-overlay was performed by incubating the membranes with 250 nM RI overnight at 4° C., then the membranes were washed five times in TBST for 5 min. Detection of RI was performed using an anti-RI rabbit polyclonal antibody (Santa Cruz) at a concentration of 0.2 μg/μl for 1 hour at 4° C. Then the membranes were washed five times for 5 minutes in PBS followed by incubation with HRP-conjugated anti-rabbit IgGs (1:5000) for 1 hour at 4° C. […]
Densitometric analysis. The densitometric analysis was performed using Scion Image (www.scioncorp.com) (Scion Coorperation, Mo., USA) or Quantity One version 4.5.0, (BioRad).

[2] = activated T cells, increasing doses

Compound | annexin V binding [1, 2] | morphological changes (FSC/SSC) [1, 2] | late apoptotic cells (AV+/PI+) ([1]; overnight) | DNA content (aneuploidity), PI-staining ([1]; permeabilized fixed cells) | displacement of PKA-RIα from mitochondria (PKA-RIα) | affinity for RII compared to PDSM (RII; densitometry of autoradiographs, lower) [times] | competition of RII binding to an RII specific binding sequence (RII; up to 100 μM peptide in solution)
LEQYANQLADQIIKEATERRRRRRRRRrr [MEME3-Arg11] | no increase in annexin V binding, but rather a small decrease | no morphological changes characteristic of apoptosis | No late apoptotic cells (AV+/PI+) were detected | No change in DNA content | displaced from mitochondria | – | –
CC[C@H](C)[C@H](NC(=O)[C@H](CCC(N)=O)NC(=O)[C@H](CC(=O)O)NC(=O)[C@H](C)NC(=O)[C@H](CC(C)C)NC(=O)[C@H](CCC(N)=O)NC(=O)[C@H](CC(N)=O)NC(=O)[C@H](C)NC(=O)[C@H](Cc1ccc(O)cc1)NC(=O)[C@H](CCC(N)=O)NC(=O)[C@H](CCC(=O)O)NC(=O)[C@@H](N)CC(C)C)C(=O)N[C@H](C(=O)N[C@@H](CCCCN)C(=O)N[C@@H](CCC(=O)O)C(=O)N[C@@H](C)C(=O)N[C@H](C(=O)N[C@@H](CCC(=O)O)C(=O)N[C@@H](CCCCNC(=O)c1ccc2c(c1)C(=O)OC21c2ccc(O)cc2Oc2cc(O)ccc21)C(N)=O)[C@@H](C)O)[C@@H](C)CC [MEME3] | – | – | – | – | – | 0.5 | not able to compete the RII binding
